From patent US7064190B1, “Antigen-specific, activated T lymphocytes, detection and use” (Roche Diagnostics GmbH, priority 1994, dated 2006)

Columns and labels:
Assay type in all cases: cell-based, human
[1] = test system: T cell line 6/10; assay: Proliferation test with variants of the peptide 5G1 using the T cell line 6/10; conditions: for Stimulation index: TCL 6/10, variants of peptide 5G1
Method: In order to elucidate the core structure of the stimulating peptide 5G1, proliferation tests were carried out with various variants of this peptide using the T cell line 6/10 (see Table 4).
A test with a first series of 20 mer variants is intended to ascertain whether amino acids which border on the 5G1 structure at the C- or N-terminus play a role in the recognition by the T cell line 6/10. […] A 6 amino acid shift towards the N-terminus leads to a loss in stimulation capacity.
A test with a second series of peptide variants examines the influence of a shortening at the C-terminus.
The object of a test with a third series of peptide variants was to define the N-terminus of the minimum stimulation-active peptide. If the amino acids leucine (L) and proline (P) are removed from a 18 mer with an intact C-terminus, this leads to a strong decrease of the stimulation index. The N-terminus is thus defined by L and P. If the […] is shortened further by H and F this also leads to a loss of stimulation activity.

[2] = test system: T cell line 6/7; assay: T cell proliferation with peptides using PBLs of various haplotypes as antigen-presenting cells, TCL 6/7; conditions: for SI (stimulation index): TCL 6/7
Method: (§1) The experimental procedure is analogous to example 1.3. […] The proliferation tests were carried out using the autoantigenic peptides 5G1 (corresponding to amino acids 266–285 of human GAD65) and 5F3 (corresponding to amino acids 306–325 of human GAD65).
(§2) T cell proliferation after stimulation with the peptides 5G1 and 5F3 using PBLs with various haplotypes as antigen-presenting cells

[3] = test system: T cell line 6/7; assay: Proliferation test with peptides derived from the H-GAD sequence, T cell line 6/7; conditions: 10 μg/ml individual peptides from pools 7 and 11, FIG. 5
Method: (§3) Autologous PBLs or PBLs of a normal donor which are identical with regard to the HLA class II antigens are used as stimulator cells. The PBLs are pre-incubated with antigen as described in paragraph 2, irradiated with 4000 rad and distributed in 96 well plates (100 000 cells/well).
(§4) After 3–4 days at 37° C./7% CO2, 1 μCi ^3H-thymidine is added and incubated for a further 16–20 hours. Afterwards the cells are transferred onto a glass fibre filter by means of a cell harvester instrument and the incorporated radioactivity is determined in a β counter.
(§5) T cell lines that had been expanded by means of at least 4 restimulation cycles and which reacted with SW-GAD in the proliferation test were additionally tested with overlapping peptides of H-GAD. The object of these experiments is to define the epitopes of H-GAD that are recognized by the T cells. For this, overlapping 20 mer peptides of H-GAD are firstly synthesized (overlapping region 10 amino acids, total of 59 different peptides).
(§6) […] The further treatment of these stimulator cells is carried out as described in section 3a.
(§7) Subsequently 6000–20,000 T cells are added per microculture well. The further procedure is analogous to that described in section 3b.

[4] = test system: T cell line 6/10; assay: T cell proliferation with peptides using PBLs of various haplotypes as antigen-presenting cells, TCL 6/10; conditions: for proliferation in the presence of the DR B1 allele 0401: T cell line 6/10; for SI (stimulation index): TCL 6/10
Method: as §1, §2

[5] = test system: T cell line 6/10; assay: Proliferation test with peptides derived from the H-GAD sequence, T cell line 6/10; conditions: 10 μg/ml individual peptides from pools 7 and 11, FIG. 6
Method: as §3, §4, §5, §6, §7

[6] = test system: T cell line 6/7; assay: Proliferation test with SW-GAD, T cell line 6/7; conditions: stimulator PBLs pulsed with SW-GAD
Method: (§8) The first restimulation is carried out on the 14th day after the beginning of the primary stimulation. For this, in comparison to the primary stimulation, double the number of autologous PBLs is isolated by means of Ficoll and adjusted in culture medium to a cell concentration of 2×10^6/ml. One half of these stimulator cells is incubated for 2 hours/37° C./7% CO2 with the antigen SW-GAD (final concentration 5 μg/ml) (antigen pulse). The other half is incubated under the same conditions without antigen and only with culture medium. Subsequently all stimulator cells are irradiated with 4000 rad. The stimulator cells are then distributed (100 000 cells/well) in 96 well round-bottom plates in such a way that a well with stimulator cells containing antigen is always adjacent to a well with stimulator cells without antigen.
(§9) All tests are carried out in at least duplicate preparations.
(§10) Autologous PBLs or PBLs of a normal donor which are identical with regard to the HLA class II antigens are used as stimulator cells. […]
as §4

[7] = test system: T cell line 6/10; assay: Proliferation test with SW-GAD, T cell line 6/10; conditions: stimulator PBLs pulsed with SW-GAD
Method: as §8, §9, §10, §4

[8] = APC donor four (DR B1 0301/0401)
[9] = APC donor one (DR B1 1302/0401)
[10] = APC donor three (DR B1 0301/0404)
[11] = APC donor two (DR B1 0101/1601)

AALPRLIAFTSE [SEQ ID NO:12]
Stimulation index [1]: 0.6

AALPRLIAFTSEHS [SEQ ID NO:11]
Stimulation index [1]: 0.7

AALPRLIAFTSEHSHF [SEQ ID NO:10]
Stimulation index [1]: 2.9

AALPRLIAFTSEHSHFSL [SEQ ID NO:9]
Stimulation index [1]: 4.5

ALPRLIAFTSEHSHFSLKKG [SEQ ID NO:6]
Stimulation index [1]: 3.0

ERGKMIPSDLERRILEAKQK (ERGKMIPSDLERRILEAKQK) [5F3, corresponding to amino acids 306–325 of human GAD 65]
proliferation in the presence of the DR B1 allele 0401 ([2]; T cell line 6/7): proliferation in the presence of the DR B1 allele 0401 is found
SI (stimulation index) ([2]; APC donor 19 (DR B1 0301/0401)): 3.1
SI (stimulation index) [2, 8]: 3.8
SI (stimulation index) [2, 9]: 7.0
SI (stimulation index) [2, 10]: 0.6
SI (stimulation index) [2, 11]: 1.2
proliferation with individual peptides [3]: smaller but significant proliferation
proliferation in the presence of the DR B1 allele 0401 [4]: proliferates
SI (stimulation index) ([4]; APC donor 19 (DR B1 0301/0401)): 2.8
SI (stimulation index) [4, 8]: 3.8
SI (stimulation index) [4, 9]: 6.5
SI (stimulation index) [4, 10]: 1.5
SI (stimulation index) [4, 11]: 1.4
proliferation with individual peptides [5]: smaller but significant proliferation

GMAALPRLIAFTSEHSHFSLKKGAA (GMAALPRLIAFTSEHSHFSLKKGAA) [amino acid sequence (I), amino acid residues 266–290 of the human GAD 65]
proliferation in the presence of the DR B1 allele 0401 and 0101 or/and 1601 ([2]; T cell line 6/7): proliferates
proliferation in the presence of the DR B1 allele 0401 [4]: proliferates

GMAALPRLIAFT [SEQ ID NO:14]
Stimulation index [1]: 1.0

GMAALPRLIAFTSE [SEQ ID NO:13]
Stimulation index [1]: 0.8

GMAALPRLIAFTSEHSHFSL [5G1, corresponding to amino acids 266–285 of human GAD 65]
recognition in association with the alleles DR B1 0101 or/and 1601 ([2]; T cell line 6/7): recognizes
SI (stimulation index) ([2]; APC donor 19 (DR B1 0301/0401)): 45.7
SI (stimulation index) [2, 8]: 55.0
SI (stimulation index) [2, 9]: 67.8
SI (stimulation index) [2, 10]: 0.9
SI (stimulation index) [2, 11]: 28.6
proliferation with individual peptides [3]: significant proliferation
SI (stimulation index) ([4]; APC donor 19 (DR B1 0301/0401)): 8.5
SI (stimulation index) [4, 8]: 6.0
SI (stimulation index) [4, 9]: 22.6
SI (stimulation index) [4, 10]: 1.5
SI (stimulation index) [4, 11]: 2.2
proliferation with individual peptides [5]: significant proliferation
Stimulation index [1]: 5.4

LPRLIAFTSEHS [SEQ ID NO:18]
Stimulation index [1]: 0.4

LPRLIAFTSEHSHF [SEQ ID NO:17]
stimulation capacity of 5G1 variants ([1]; T cell line 6/10): minimum peptide that can still stimulate
Stimulation index [1]: 4.6

LPRLIAFTSEHSHFSLKK [SEQ ID NO:15]
Stimulation index [1]: 3.2

PEVKEKGMAALPRLIAFTSE [SEQ ID NO:8]
Stimulation index [1]: 0.6

RLIAFTSEHSHFSL [SEQ ID NO:16]
Stimulation index [1]: 1.4

RLIAFTSEHSHFSLKKGAAA [SEQ ID NO:7]
Stimulation index [1]: 3.2

B1: SW-GAD: porcine GAD (glutamic acid decarboxylase from pig brain) used as antigen (protein)
chain: MASSTPSSSATSSNAGPDPNTTNLRPTTYDTWCGVAHGCTRKLGLKICGFLQRTNSLEEKSRLVSAFKERQSSKNLLSCENSDRDGRFRRTETDFSNLFARDLLPAKNGEEQTVQFLLEVVDILLNYVRKTFDRSTKVLDFHHPHQLLEGMEGFNLELSDHPESLEQILVDCRDTLKYGVRTGHPRFFNQLSTGLDIIGLAGEWLTSTANTNMFTYEIAPVFVLMEQITLKKMREIVGWSNKDGDGIFSPGGAISNMYSIMAARYKYFPEVKTKGMAAVPKLVLFTSEHSHYSIKKAGAALGFGTDNVILIKCNERGKIIPADLEAKILEAKQKGYIPLYVNATAGTTVYGAFDPIQEIADICEKYNLWLHVDAAWGGGLLMSRKHRHKLSGIERADSVTWNPHKMMGVLLQCSAILVKEKGILQGCNQMCAGYLFQPDKQYDVSYDTGDKAIQCGRHVDIFKFWLMWKAKGTVGFENQINKCLELAEYLYAKIKNREEFEMVFDGEPEHTNVCFWYIPQSLRGVPDSPERREKLHRVAPKIKALMMESGTTMVGYQPQGDKANFFRMVISNPAATQSDIDFLIEEIERLGQDL
cpm SW-GAD (3H-thymidine incorporation) [6]: 9373 cpm
cpm SW-GAD (3H-thymidine incorporation) [7]: 5222 cpm
